Test results as given in PubChem BioAssay (NCI).
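Dose response: 5 concentrations. Exposure: 48 h. Format: 96-well plates. Endpoint: linear interpolation; highest concentration if not reached. TGI is the concentration that stops growth completely.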

Tests used:
Test in all cases: NCI anticancer screen, dose series, 48 h
CAKI-1 renal = tested on: CAKI-1 renal
COLO 205 colon = tested on: COLO 205 colon
HCC-2998 colon = tested on: HCC-2998 colon
HCT-15 colon = tested on: HCT-15 colon
HT29 colon = tested on: HT29 colon
MOLT-4 leukemia = tested on: MOLT-4 leukemia
NCI-H460 lung = tested on: NCI-H460 lung
RPMI-8226 leukemia = tested on: RPMI-8226 leukemia
SF-268 CNS = tested on: SF-268 CNS
T-47D breast = tested on: T-47D breast
MCF7 breast = tested on: MCF7 breast
NCI-H522 lung = tested on: NCI-H522 lung

Row | SMILES | TGI (CAKI-1 renal) | TGI (COLO 205 colon) | TGI (HCC-2998 colon) | TGI (HCT-15 colon) | TGI (HT29 colon) | TGI (MOLT-4 leukemia) | TGI (NCI-H460 lung) | TGI (RPMI-8226 leukemia) | TGI (SF-268 CNS) | TGI (T-47D breast) | TGI (MCF7 breast) | TGI (NCI-H522 lung)
1 | O=C(Cn1c2ccc(Br)cc2c2nc3ccccc3nc21)N1CCOCC1 | > 100 µM | > 100 µM | > 100 µM | > 100 µM | > 100 µM | > 100 µM | > 100 µM | > 100 µM | > 100 µM | > 100 µM | – | –
2 | C=C1C(=O)O[C@H]2C1C[C@H](O)/C(C)=C/CC[C@@]1(C)O[C@H]21 (some centres undefined) | 28.4 µM | 18.2 µM | 27.5 µM | 31.1 µM | 50.9 µM | – | – | 31.5 µM | 74.5 µM | – | 27.6 µM | 3.43 µM
3 | COc1ccc2nc3c([N+](=O)[O-])ccc4c3c(c2c1)N=CN4CCN(C)C | 5.71 µM | 10.1 µM | 20.3 µM | 16.6 µM | 14.4 µM | 6.73 µM | > 34.1 µM | 8.27 µM | 19.6 µM | 22.4 µM | 14.2 µM | 9.68 µM
4 | CCOC(OCC)[C@@H]1C[C@@H]2N(O[C@H](OC3CCCC3(c3ccccc3)c3ccccc3)[C@H](OC(C)=O)[C@@]2(CC)Cc2ccc(OC)c(OC)c2)O1 (some centres undefined) | > 100 µM | > 100 µM | > 100 µM | > 100 µM | > 100 µM | > 100 µM | > 100 µM | – | > 100 µM | > 100 µM | > 100 µM | > 100 µM
5 | CCOC(=O)CN1C(=O)c2c(NC(=O)C(=O)O)cccc2S1(=O)=O | > 100 µM | > 100 µM | > 100 µM | > 100 µM | > 100 µM | > 100 µM | > 100 µM | > 100 µM | > 100 µM | > 100 µM | > 100 µM | > 100 µM
6 | O=C(/C=C/c1ccc(Cl)cc1)c1nc2ccccc2[nH]1 | 10.1 µM | 50.4 µM | 25.8 µM | 61.4 µM | 63.4 µM | – | > 100 µM | 5.18 µM | > 100 µM | 38.9 µM | 9.04 µM | > 100 µM
7 | CCC/C=C/C=C\C(=O)O[C@@H]1[C@@H](C)[C@]2(O)[C@@H]3C=C(C)C(=O)[C@H]3CC(COC(C)=O)=C[C@H]2[C@@H]2C(C)(C)[C@]12OC(C)=O | 72.2 µM | 22.5 µM | 58.3 µM | 77.1 µM | 84.6 µM | 85.2 µM | 63.7 µM | 95.8 µM | 87.7 µM | – | 83.1 µM | > 89.6 µM
8 | CC(=O)Oc1ccc(C)c2c1[C@H]1CC[C@]3(C)[C@@H](OC(C)=O)CC[C@H]3[C@@H]1CC2 | – | – | 32.8 µM | 35.2 µM | 33.5 µM | 46.5 µM | 37.4 µM | 49.4 µM | 80.3 µM | 40.6 µM | 38.9 µM | 34.1 µM
9 | Cc1ccc2nc(-c3nccn3C)cc(C(=O)NC(C)CN(C)C)c2c1 (centres undefined) | > 100 µM | > 100 µM | – | > 100 µM | > 100 µM | – | > 100 µM | – | > 100 µM | > 100 µM | > 100 µM | –
10 | Clc1ccc2c(c1)CC1C[N+]3=C(CCCCC3)C1=C2 (centres undefined) | > 100 µM | > 100 µM | – | > 100 µM | > 100 µM | > 100 µM | > 100 µM | – | > 100 µM | > 100 µM | > 100 µM | > 100 µM
11 | CC(C)(C)C1CCC2c3c([nH]c4ccccc34)C3C(=O)N(c4cc(Cl)ccc4Cl)C(=O)C3C2C1 (centres undefined) | > 100 µM | > 100 µM | > 100 µM | > 100 µM | > 100 µM | > 100 µM | > 100 µM | > 100 µM | – | – | > 100 µM | –
12 | CC(Cn1c(=O)oc2ccccc21)N(C)C (centres undefined) | > 100 µM | > 100 µM | – | > 100 µM | > 100 µM | > 100 µM | > 100 µM | > 100 µM | > 100 µM | – | > 100 µM | –
13 | O=C(O)c1ccccc1/C=N\N(CCO)C1=NCCN1 | – | > 100 µM | > 100 µM | > 100 µM | > 100 µM | > 100 µM | > 100 µM | > 100 µM | > 100 µM | > 100 µM | > 100 µM | –
14 | O=C1/C(=C/c2cccc([N+](=O)[O-])c2)Cc2ccccc21 | > 100 µM | > 100 µM | – | > 100 µM | > 100 µM | > 100 µM | > 100 µM | > 100 µM | > 100 µM | – | > 100 µM | > 100 µM
15 | NCCCC(N)(C(=O)O)C(F)F (centres undefined) | > 5000 µM | > 5000 µM | > 5000 µM | > 5000 µM | > 5000 µM | > 5000 µM | > 5000 µM | > 5000 µM | > 5000 µM | – | > 5000 µM | > 5000 µM
16 | CN(C)C1(N(C)C)Oc2c(c(=O)n(C)c(=O)n2C)C(c2ccc(F)cc2)C1(F)F (centres undefined) | > 100 µM | > 100 µM | > 100 µM | > 100 µM | – | – | > 100 µM | > 100 µM | > 100 µM | > 100 µM | > 100 µM | –
17 | CC(C)(CN1CCCCC1)C(=O)CC(SCCS(=O)(=O)O)c1ccccc1 (centres undefined) | 34.9 µM | 27.6 µM | 41.8 µM | 42.9 µM | 31.7 µM | 36.1 µM | > 100 µM | 46.9 µM | 65.8 µM | – | 33.4 µM | 5.83 µM
18 | CC(c1ccccc1)n1c2ccccc2c2c(N)ncnc21 (centres undefined) | 62.2 µM | – | 34.5 µM | 59.4 µM | 31.6 µM | 52.7 µM | 58.3 µM | 74.5 µM | 43.5 µM | 59.6 µM | 37.2 µM | 31.2 µM
19 | CC1=NC(=O)CNN1C1=NNC2(C(=O)N1)c1ccccc1-c1ccccc12 | > 100 µM | > 100 µM | > 100 µM | > 100 µM | > 100 µM | – | > 100 µM | – | > 100 µM | – | > 100 µM | > 100 µM
20 | CCOC(=O)NC(C(F)(F)F)(C(F)(F)F)P(=O)(OCC)OCC | – | > 100 µM | > 100 µM | > 100 µM | > 100 µM | 97.9 µM | > 100 µM | 87.4 µM | > 100 µM | > 100 µM | > 100 µM | 36.9 µM
21 | COc1c(N2CCCCC2)c2c(=O)c3ccccc3oc2c2c3ccccc3n(C)c12 | > 100 µM | > 100 µM | > 100 µM | > 100 µM | > 100 µM | > 100 µM | > 100 µM | > 100 µM | > 100 µM | – | > 100 µM | –
